Where a name gives a salt, the structure may show the parent alone. Read-outs that look alike come from different tables or passages of the source.
Assays:
[1] = biological target: CYP2C9 (Homo sapiens (Human), UniProt P11712); assay: Inhibition of cytochrome P450 isoenzymes, CYP2C9; assay type: in vitro ADME; conditions: >50 μM: inhibitory effect less than 50% at 50 μM; read-out: CYP 2C9 IC50
Method: (§1) 4.1 Experimental Purpose: To test the inhibitory effects of the compounds of the present disclosure on different isoforms of human cytochrome P450 isoenzymes
(§2) 1) The activities of CYP1A2, 2C9, 2C19, 2D6, and 3A4 were measured using a standard substrate method. In each reaction, the enzyme activities were measured in the presence and absence of the substance to be tested, wherein a single sample was measured at a total of eight test concentrations. A 5-in-1 mixed inhibitor was used.
(§3) 2) An incubation matrix comprising microsomes, a substrate, and an inhibitor or the compound to be tested was pre-incubated at 37° C. for 5 minutes, and then NADPH was added to start the reaction.
(§4) 3) After the incubation, acetonitrile with an internal standard was added to stop the reaction.
(§5) 4) Metabolites generated by the substrates were measured by using the LC-MS/MS method, and the peak area ratio of each metabolite to the internal standard was evaluated and the inhibition rate and IC50 were calculated.

[2] = biological target: human μ-subtype opioid receptor (hMOR) (Homo sapiens (Human), UniProt P35372); assay: MOR β-arrestin-2 agonist activity test; assay type: cell-based; conditions: for Emax: maximum effect of enkephalin DAMGO was 100%, about 0% = no actual agonist activity
Method: Test 2: β-Arrestin-2 Agonist Activity Test
2.1 Experimental Purpose: To test the β-arrestin-2 agonist activity of the compounds of the present disclosure on the human μ-subtype opioid receptor (hMOR).
a. All samples were dissolved in DMSO to a storage concentration of 10 mM.
b. A series of diluted samples were formulated on a 384-well LDV plate. A total of 11 concentration points were obtained by 3.162-fold gradient dilution.
c. The series of diluted samples were transferred to an experimental plate by using an Echo machine, wherein 60 nL of the compound was transferred corresponding to each well.
d. 60 nL of 3.33 mM DAMGO (as HPE) and 60 nL of DMSO (as ZPE) were transferred to the corresponding positions on the experimental plate by using the Echo machine.
The experiment was performed using PathHunter Detection Kit from DiscoveRX Cooperation (DiscoveRX #93-0213C3)
a. Assay buffer and PathHunter detection reagent required for the experiment were formulated.
Assay Buffer: 1×DPBS buffer
PathHunter Detection Reagent: The kit was provided therein with three constituents.
c. The experimental plate was centrifuged at 300 rpm for 30 s and incubated at room temperature for 2 hours.
d. 6 μL of the PathHunter detection reagent was added to each well of the experimental plate.
e. The experimental plate was centrifuged at 300 rpm for 30 seconds, then left at room temperature for 60 minutes, and then read on the Envision.

[3] = biological target: CYP3A4 (Homo sapiens (Human), UniProt P08684); assay: Inhibition of cytochrome P450 isoenzymes, CYP3A4; assay type: in vitro ADME; conditions: >50 μM: inhibitory effect less than 50% at 50 μM; read-out: CYP 3A4 IC50
Sequence of CYP3A4 (P08684 whole entry): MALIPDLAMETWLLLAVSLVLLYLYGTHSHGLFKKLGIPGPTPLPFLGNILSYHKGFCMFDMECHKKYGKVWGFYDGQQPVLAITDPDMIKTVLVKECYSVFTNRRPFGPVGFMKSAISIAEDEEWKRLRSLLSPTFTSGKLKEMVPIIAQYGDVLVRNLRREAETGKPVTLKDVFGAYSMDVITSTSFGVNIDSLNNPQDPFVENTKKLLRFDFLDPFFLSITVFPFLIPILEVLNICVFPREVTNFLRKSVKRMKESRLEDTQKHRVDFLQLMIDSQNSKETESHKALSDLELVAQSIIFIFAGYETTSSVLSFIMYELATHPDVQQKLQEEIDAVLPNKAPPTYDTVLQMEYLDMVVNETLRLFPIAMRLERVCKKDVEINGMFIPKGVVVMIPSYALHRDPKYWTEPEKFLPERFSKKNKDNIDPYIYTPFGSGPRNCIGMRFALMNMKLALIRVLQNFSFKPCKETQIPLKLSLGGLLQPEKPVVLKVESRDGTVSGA
Method: as §1, §2, §3, §4, §5

[4] = Pharmacokinetics of the compounds in rats; assay type: in vivo, rat; conditions: for Apparent Clearance Cl: male SD rats, single IV, mg/Kg: Comparative Compound 1 1.80, (+)-5 2.40, (+)-16 1.76, HCl salt of (+)-23 1.71; for Kp at […] / Vd / AUC(0-inf) / half-life / C0: male, SD, rat, iv; for Kp at […]: brain/plasma, read-out: Brain/Plasm Ratio B/P ratio; for Vd / AUC(0-inf) / half-life / C0: plasma; for Vd: read-out: Apparent Distribution Volume Vd; for AUC(0-inf): read-out: Area under the Curve AUC0-inf; for half-life: read-out: Hal-life T1/2 (converted); for C0: read-out: Initial Concentration C0
Method: 6.1 Experimental Purpose: To measure, using a LC/MS/MS method, the medicament concentrations of the compound in plasma and specific tissues at different time points after the compound was administered by a single intravenous injection (IV) to 7-9-week-old male SD rats used as test animals, to study on the pharmacokinetic behavior of the compound of the present disclosure in rats, and to evaluate the pharmacokinetic characteristics thereof. 6.2 Compound Formulation
Each of them was formulated at a concentration of 1 mg/mL and was used for IV (intravenous injection) administration.
The actual weights of the rats were weighed on the day of administration and volumes to be administered were calculated. The above formulated solutions to be administered were administered by injection into caudal veins of rats.
About 0.2 mL of whole blood samples were collected by means of jugular vein puncture at the time set in the experimental protocol, and the actual blood collection time was recorded in the experimental records. All the blood samples were added to labeled plastic centrifuge tubes to which K2-EDTA anticoagulant was added in advance. After the blood samples were collected, they were centrifuged at 3,000 g for 10 minutes at 4° C. to prepare the supernatant plasma, and the plasma was stored at −20° C. or a lower temperature for LC-MS/MS analysis.
The concentrations of the compounds in rat plasma were measured by using high-performance liquid chromatography-tandem mass spectrometry (LC-MS/MS). The retention durations of the compounds and internal standard, chromatogram acquisition, and integration of chromatograms were processed using the software Analyst (Applied Biosystems), and data statistics were processed using the software Watson LIMS (Thermo Fisher Scientific) or Analyst (Applied Biosystems). The plasma concentration was processed using a non-compartmental model of WinNonlin™ Version 6.3 (Pharsight, Mountain View, Calif.) which was a pharmacokinetic software, and the pharmacokinetic parameters were calculated using a linear logarithmic trapezoidal method.

[5] = >30000 nM = greater than the highest detection concentration, read-out: MOR β-arrestin-2 EC50

Sequence of CYP2C9 (P11712 whole entry, canonical isoform): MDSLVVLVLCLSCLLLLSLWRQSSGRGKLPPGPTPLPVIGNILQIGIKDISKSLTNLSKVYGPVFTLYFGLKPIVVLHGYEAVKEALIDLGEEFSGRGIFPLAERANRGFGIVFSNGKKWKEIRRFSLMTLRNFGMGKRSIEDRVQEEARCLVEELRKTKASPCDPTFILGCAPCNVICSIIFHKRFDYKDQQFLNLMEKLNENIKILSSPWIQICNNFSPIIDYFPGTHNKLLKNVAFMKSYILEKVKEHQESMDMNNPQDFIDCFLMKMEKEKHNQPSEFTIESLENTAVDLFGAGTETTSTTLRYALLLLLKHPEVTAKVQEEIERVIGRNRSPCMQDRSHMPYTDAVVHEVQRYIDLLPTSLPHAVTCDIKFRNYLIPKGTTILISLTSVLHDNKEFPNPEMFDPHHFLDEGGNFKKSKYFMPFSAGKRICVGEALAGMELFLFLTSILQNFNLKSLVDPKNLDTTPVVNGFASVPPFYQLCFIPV

SMILES	IC50 [1] [µM]	EC50 [2, 5] [µM]	Emax [2] [%]	IC50 [3] [µM]	Apparent Clearance Cl [4] [mL/min/kg]	Kp at […] [4]	Vd [4] [L/kg]	AUC(0-inf) [4] [µM·h]	half-life [4] [min]	C0 [4] [nM]	EC50 [2] [µM]
c1ccc([C@]2(CCNCc3scc4c3CCC4)CCO[C@]3(CCOC3)C2)nc1 [(+)-2]	> 50	> 30	~0	> 50	–	–	–	–	–	–	–
Fc1ccc([C@]2(CCNCc3cccc(Cl)c3)CCO[C@]3(CCOC3)C2)nc1 [(+)-16]	> 50	> 30	~0	40.6	114	4.61	6.3	0.723	54	979	–
Cc1cccc(CNCC[C@@]2(c3ccc(F)cn3)CCO[C@]3(CCOC3)C2)c1 [Hydrochloride Salt of (+)-22]	> 50	–	~0	> 50	–	–	–	–	–	–	> 30
Fc1ccc([C@]2(CCNCc3cccc(F)c3)CCO[C@]3(CCOC3)C2)nc1 [Hydrochloride Salt of (+)-23]	> 50	> 30	~0	> 50	113	2.2	5	0.763	42	1550	–
COc1ccsc1CNCC[C@@]1(c2ccccn2)CCOC2(CCCC2)C1 [compound 1, Oliceridine, reference compound]	> 50	–	4.5	–	74.4	–	4.3	1.15	48	1900	–
